# Measured values reported in PMC12406685, “Thiazole substitution of a labile amide bond—a new option toward antiplasmodial pantothenamide-mimics” (Antimicrobial Agents and Chemotherapy, 2025).
# pKi: −log10 of the molar value.
# Experiments:
# [1] = system: human foreskin fibroblasts (HFF); assay: In vitro HFF proliferation assay (Incucyte confluency); format: cell-based; details: 200 µM compound, DMEM with 16.8 µM pantothenate, 96 h; mean ± range/2 of two experiments
# Experimental: (§1) HFF cells were maintained in vitro in DMEM supplemented with 10% (vol/vol) newborn calf serum, 50 units/mL penicillin, 50 µg/mL streptomycin, 10 µg/mL gentamicin, 0.2 mM L-glutamine, and 0.25 µg/mL amphotericin B, as previously described ([99]). HepG2 cells were maintained in RPMI-1640 medium (Thermo Fisher Scientific, catalogue number 72400120) supplemented with 10% (vol/vol) fetal bovine serum, 50 units/mL penicillin, and 50 µg/mL streptomycin.
# In vitro HFF proliferation assays were performed as previously described by Howieson et al. ([32]), with modifications. Confluent HFF cells (in a 75 cm^2 flask) were harvested by treatment with 1 × trypsin–EDTA (0.25% [wt/vol] trypsin +0.2 g/L EDTA) and diluted in 21 mL of DMEM supplemented with 10% [vol/vol] newborn calf serum ([32]). Assays were set up in 96-well microtiter plates in a similar way to that described for the antiplasmodial activity assay. Cycloheximide (10 µM) was used as a non-proliferation control, and 0.1% (vol/vol) DMSO served as a 100% proliferation control. The plates were incubated at 37°C in a CO2 incubator for 96 h, and the Incucyte Live-Cell Analysis System (Essen BioScience) was used to capture cellular changes and assess cell growth in each well over time. Each well was scanned to capture bright field images, and confluency was assessed at the end of the 96 h incubation, which was then used to evaluate the effect of each compound on the proliferation of HFF cells by comparing it to the 100% proliferation control. The bottom of the curve was constrained to 0 when fitting for HFF proliferation assays using GraphPad Prism.
# [2] = system: human hepatoblastoma cells (HepG2); assay: In vitro HepG2 proliferation assay (Incucyte confluency); format: cell-based; details: for Proliferation (%) of HepG2 with 200 µM Cpd and 1 µM Pan: 200 µM compound, 72 h, mean ± range/2 of two experiments; for Proliferation (%) of HepG2 with 200 µM Cpd and 1 µM Pan / Effect on HepG2 cells, in words: RPMI-1640 with 1 µM pantothenate
# Experimental: as §1
# In vitro HepG2 proliferation assays were performed similarly to the HFF proliferation assays with modifications. Confluent HepG2 cells were harvested by treatment with 1 × trypsin–EDTA and diluted in RPMI-1640 supplemented with 10% (vol/vol) fetal bovine serum. Assays were set up in 96-well microtiter plates with 20,000 cells per well. Puromycin (10 µM) was used as a non-proliferation control, and 0.1% (vol/vol) DMSO served as a 100% proliferation control. The plates were incubated at 37°C in a CO2 incubator for 72 h, and the Incucyte Live-Cell Analysis System (Essen BioScience) was used to capture cellular changes and assess cell growth in each well over time as described above for the HFF proliferation assays. The bottom of the curve was constrained to 0 when fitting for HepG2 proliferation assays using GraphPad Prism.
# HsPanK3 = target: T1, HsPanK3 (Homo sapiens, UniProt Q9H999); assay: HsPanK kinetic assay (pyruvate kinase/lactic dehydrogenase coupled, NADH at 340 nm); format: biochemical; design: catalytic core domain of human PanK3 (amino acid residues 12–368); made in house; host or cells: E. coli BL21(DE3); details: for Substrate inhibition of HsPanK3: at rising substrate concentration (0–2,000 µM)
# T1 sequence (Q9H999 12-368): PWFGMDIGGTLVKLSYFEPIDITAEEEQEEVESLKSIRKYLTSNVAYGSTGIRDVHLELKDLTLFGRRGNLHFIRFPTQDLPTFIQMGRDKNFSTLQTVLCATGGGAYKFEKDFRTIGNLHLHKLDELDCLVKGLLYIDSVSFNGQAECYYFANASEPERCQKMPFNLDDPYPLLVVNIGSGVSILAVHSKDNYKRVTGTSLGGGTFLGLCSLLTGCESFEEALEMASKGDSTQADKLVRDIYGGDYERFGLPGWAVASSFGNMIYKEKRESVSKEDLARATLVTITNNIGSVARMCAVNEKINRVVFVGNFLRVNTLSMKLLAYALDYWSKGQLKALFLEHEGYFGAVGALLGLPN
# Experimental: The gene encoding the catalytic core domain of human PanK3 (amino acid residues 12–368) was synthesized and cloned into the pET28a(+) expression vector using the NdeI and BamHI restriction sites to produce an N-terminal His6-tagged protein (Bio Basic Inc.). The plasmid was transformed into E. coli BL21(DE3) cells, which were cultured in Terrific Broth (TB) medium containing 50 µg/mL kanamycin at 37°C. When the culture reached an optical density at 600 nm (OD600) of 0.6, protein expression was induced by adding 1.0 mM isopropyl β-D-thiogalactoside (IPTG), followed by incubation at 18°C for 17–18 h. The cells were then harvested and resuspended in lysis buffer (20 mM Tris-HCl, pH 7.5, 500 mM NaCl, 5 mM imidazole, 5% [vol/vol] glycerol) supplemented with 1 mM PMSF (phenylmethylsulfonyl fluoride) and lysozyme (5 mg/g of the cell pellet). The suspension was then sonicated on ice, and the resulting lysate was centrifuged twice at 54,000 × g for 30 min at 4°C.
# The clarified supernatant was incubated with Ni-NTA resin (Cytiva) pre-equilibrated with lysis buffer containing 5 mM imidazole at 4°C. After binding, the resin was washed with lysis buffer containing 30 mM imidazole, then eluted with lysis buffer containing 250 mM imidazole. The eluted HsPanK3 protein was dialyzed against storage buffer (20 mM Tris-HCl, pH 7.5, 200 mM NaCl, 5% [vol/vol] glycerol) and concentrated. The purified protein was stored at −80°C. Protein purity was assessed using SDS-PAGE and deemed >50% (Fig. S4).
# The enzyme assay was adapted from a previously described method ([103]), which links the production of ADP to the consumption of NADH through the enzymatic activities of pyruvate kinase and lactic dehydrogenase. Reactions were conducted in 96-well microtiter plates, and the decrease in NADH concentration was measured at 340 nm at 30 s intervals after incubation at 30°C. Each reaction mixture (200 µL) contained the desired compound (substrate) at variable concentrations (0–2,000 µM), ATP (1.5 mM), NADH (0.3 mM), phospho(enol)pyruvate (2.0 mM), MgCl2 (10 mM), KCl (20 mM), a commercial pyruvate kinase/lactic dehydrogenase mixture (12 units, Sigma-Aldrich), and pantothenate kinase (0.48 µM) in 50 mM Tris–HCl buffer (pH 7.6). The reaction was initiated with the addition of ATP. The kinetic parameters were determined by fitting the rate data into the Michaelis–Menten equation using GraphPad Prism 8.0 with nonlinear regressions. Data were collected from three independent experiments, each performed in triplicate to verify the trends and optimize the selected concentrations. The kinetic parameters were calculated from the most complete triplicate set of data, and errors represent SEM.
# [3] = relative to natural substrate pantothenate
smiles,measurement,setting,value
CC(C)(CO)[C@@H](O)C(=O)NCc1nc(CCc2ccccc2)cs1 [Compound 1e],Proliferation (%) of HFF with 200 µM Cpd and 16.8 µM Pan,[1],101 ± 2%
same,Proliferation (%) of HepG2 with 200 µM Cpd and 1 µM Pan,[2],55 ± 1%
same,"Effect on HepG2 cells, in words",[2]; 200 µM,some low-level toxicity
same,inhibition at 200 µM,"[2]; Homo sapiens, HepG2, 200 µM",~50%
same,"kcat of HsPanK3 compared with that of pantothenate, in words",HsPanK3,slightly lower
CCCCc1csc(CNC(=O)[C@H](O)C(C)(C)CO)n1 [Compound 1a],Proliferation (%) of HFF with 200 µM Cpd and 16.8 µM Pan,[1],100 ± 1%
same,Proliferation (%) of HepG2 with 200 µM Cpd and 1 µM Pan,[2],71 ± 11%
same,"Effect on HepG2 cells, in words",[2]; 200 µM,some low-level toxicity
same,"kcat of HsPanK3 compared with that of pantothenate, in words",HsPanK3,same as
CC(C)(CO)[C@@H](O)C(=O)NCc1cnc(-c2ccccc2)s1 [Compound 3f],Proliferation (%) of HFF with 200 µM Cpd and 16.8 µM Pan,[1],100 ± 1%
same,Proliferation (%) of HepG2 with 200 µM Cpd and 1 µM Pan,[2],89 ± 2%
same,"Effect on HepG2 cells, in words",[2]; 200 µM,completely inactive
same,"kcat of HsPanK3 compared with that of pantothenate, in words",HsPanK3,slightly higher
same,Fold lower kcat/Km of HsPanK3 compared to pantothenate,HsPanK3; [3],~ 3 fold
CC(C)(CO)[C@@H](O)C(=O)NCc1csc(Cc2ccccc2)n1 [Compound 2c],Proliferation (%) of HFF with 200 µM Cpd and 16.8 µM Pan,[1],101 ± 2%
same,Proliferation (%) of HepG2 with 200 µM Cpd and 1 µM Pan,[2],93 ± 2%
same,"Effect on HepG2 cells, in words",[2]; 200 µM,completely inactive
same,pKi,HsPanK3,2.58
same,"kcat of HsPanK3 compared with that of pantothenate, in words",HsPanK3,same as
same,Substrate inhibition of HsPanK3,HsPanK3,Substrate inhibition
same,Fold lower kcat/Km of HsPanK3 compared to pantothenate,HsPanK3; [3],~ 3 fold
CCCCCc1csc(CNC(=O)[C@H](O)C(C)(C)CO)n1 [Compound 1c],Proliferation (%) of HFF with 200 µM Cpd and 16.8 µM Pan,[1],97 ± 4%
same,Proliferation (%) of HepG2 with 200 µM Cpd and 1 µM Pan,[2],62 ± 7%
same,"Effect on HepG2 cells, in words",[2]; 200 µM,some low-level toxicity
same,"kcat of HsPanK3 compared with that of pantothenate, in words",HsPanK3,same as
same,Fold lower kcat/Km of HsPanK3 compared to pantothenate,HsPanK3; [3],~ 3 fold
CC(C)(CO)[C@@H](O)C(=O)NCc1csc(-c2ccccc2)n1 [Compound 2e],Proliferation (%) of HFF with 200 µM Cpd and 16.8 µM Pan,[1],100 ± 1%
same,Proliferation (%) of HepG2 with 200 µM Cpd and 1 µM Pan,[2],91 ± 4%
same,"Effect on HepG2 cells, in words",[2]; 200 µM,completely inactive
same,pKi,HsPanK3,2.36
same,"kcat of HsPanK3 compared with that of pantothenate, in words",HsPanK3,same as
same,Substrate inhibition of HsPanK3,HsPanK3,Substrate inhibition
same,Fold higher Km of HsPanK3 for compound compared to pantothenate,HsPanK3; [3],2.8 fold
